Laboratory results: ChEMBL document CHEMBL1287680, “C-11 diamino cryptolepine derivatives NSC748392, NSC748393, and NSC748394: anticancer profile and G-quadruplex stabilization” (Bioorg Med Chem Lett, 2010)

Experiments:
K562 = assay: cells; settings: Homo sapiens
Description: Anticancer activity against human K562 cells

SW-620 = assay: cells; settings: Homo sapiens
Description: Anticancer activity against human SW620 cells

SF-295 = assay: cells; settings: Homo sapiens
Description: Anticancer activity against human SF295 cells

DU-145 = assay: cells; settings: Homo sapiens
Description: Anticancer activity against human DU145 cells

OVCAR-4 = assay: cells; settings: Homo sapiens
Description: Anticancer activity against human OVCAR4 cells

SNB-19 = assay: cells; settings: Homo sapiens
Description: Anticancer activity against human SNB19 cells

MDA-MB-231 = assay: cells; settings: Homo sapiens
Description: Anticancer activity against human MDA-MB-231 cells

SF-539 = assay: cells; settings: Homo sapiens
Description: Anticancer activity against human SF539 cells

HOP-62 = assay: cells; settings: Homo sapiens
Description: Anticancer activity against human HOP62 cells

BT-549 = assay: cells; settings: Homo sapiens
Description: Anticancer activity against human BT549 cells

HT-29 = assay: cells; settings: Homo sapiens
Description: Anticancer activity against human HT-29 cells

RXF 393 = assay: cells; settings: Homo sapiens
Description: Anticancer activity against human RXF393 cells

HCC 2998 = assay: cells; settings: Homo sapiens
Description: Anticancer activity against human HCC2998 cells

ACHN = assay: cells; settings: Homo sapiens
Description: Anticancer activity against human ACHN cells

HOP-92 = assay: cells; settings: Homo sapiens
Description: Anticancer activity against human HOP92 cells

LOX IMVI = assay: cells; settings: Homo sapiens
Description: Anticancer activity against human LOXIMVI cells

Malme-3M = assay: cells; settings: Homo sapiens
Description: Anticancer activity against human MALME-3M cells

NCI-H226 = assay: cells; settings: Homo sapiens
Description: Anticancer activity against human NCI-H226 cells

SK-MEL-5 = assay: cells; settings: Homo sapiens
Description: Anticancer activity against human SK-MEL-5 cells

A549 = assay: cells; settings: Homo sapiens
Description: Anticancer activity against human A549 cells

TK-10 = assay: cells; settings: Homo sapiens
Description: Anticancer activity against human TK10 cells

COLO 205 = assay: cells; settings: Homo sapiens
Description: Anticancer activity against human COLO205 cells

SK-OV-3 = assay: cells; settings: Homo sapiens
Description: Anticancer activity against human SKOV3 cells

SR = assay: cells; settings: Homo sapiens
Description: Anticancer activity against human SR cells

IGROV-1 = assay: cells; settings: Homo sapiens
Description: Anticancer activity against human IGROV1 cells

T47D = assay: cells; settings: Homo sapiens
Description: Anticancer activity against human T47D cells

UACC-62 = assay: cells; settings: Homo sapiens
Description: Anticancer activity against human UACC62 cells

cells = settings: Homo sapiens
Description: Anticancer activity against human RPMI8266 cells

in vivo = settings: mouse, cancer cell lines
Description: Toxicity in cancer cells containing hollow fiber implanted mouse

OVCAR-8 = assay: cells; settings: Homo sapiens
Description: Anticancer activity against human OVCAR8 cells

SF-268 = assay: cells; settings: Homo sapiens
Description: Anticancer activity against human SF268 cells

MDA-MB-468 = assay: cells; settings: Homo sapiens
Description: Anticancer activity against human MDA-MB-468 cells

Description for physchem: Dissociation constant, pKa of the compound by UV-visible spectroscopy

Question: What does the source list for `C[n+]1c2ccccc2c(NC2CCNCC2)c2[nH]c3ccccc3c21.[Cl-]`?
Answer: GI50 (K562; K562, read-out: pGI50 (converted)): 0.295 µM; CC50 (K562; K562, read-out: pLC50 (converted)): > 100 µM; GI50 (SW-620; SW-620, read-out: pGI50 (converted)): 1.45 µM; CC50 (SW-620; SW-620, read-out: pLC50 (converted)): > 100 µM; TGI (SW-620; SW-620, read-out: pTGI): 10.7 µM; GI50 (SF-295; SF-295, read-out: pGI50 (converted)): 0.741 µM; CC50 (SF-295; SF-295, read-out: pLC50 (converted)): 77.6 µM; TGI (SF-295; SF-295, read-out: pTGI): 10.2 µM; GI50 (DU-145; DU-145, read-out: pGI50 (converted)): 0.204 µM; CC50 (DU-145; DU-145, read-out: pLC50 (converted)): > 100 µM; TGI (DU-145; DU-145, read-out: pTGI): 10.2 µM; GI50 (OVCAR-4; OVCAR-4, read-out: pGI50 (converted)): 0.316 µM; CC50 (OVCAR-4; OVCAR-4, read-out: pLC50 (converted)): 36.3 µM; TGI (OVCAR-4; OVCAR-4, read-out: pTGI): 3.8 µM; GI50 (SNB-19; SNB-19, read-out: pGI50 (converted)): 0.275 µM; CC50 (SNB-19; SNB-19, read-out: pLC50 (converted)): > 100 µM; TGI (SNB-19; SNB-19, read-out: pTGI): 2.57 µM; GI50 (MDA-MB-231; MDA-MB-231, read-out: pGI50 (converted)): 1.1 µM; CC50 (MDA-MB-231; MDA-MB-231, read-out: pLC50 (converted)): 52.5 µM; TGI (MDA-MB-231; MDA-MB-231, read-out: pTGI): 9.77 µM; GI50 (SF-539; SF-539, read-out: pGI50 (converted)): 1.66 µM; CC50 (SF-539; SF-539, read-out: pLC50 (converted)): 28.8 µM; TGI (SF-539; SF-539, read-out: pTGI): 7.41 µM; GI50 (HOP-62; HOP-62, read-out: pGI50 (converted)): 0.525 µM; CC50 (HOP-62; HOP-62, read-out: pLC50 (converted)): 30.9 µM; TGI (HOP-62; HOP-62, read-out: pTGI): 5.62 µM; pKa (physchem): 11.8; GI50 (BT-549; BT-549, read-out: pGI50 (converted)): 2.75 µM; CC50 (BT-549; BT-549, read-out: pLC50 (converted)): 57.5 µM; TGI (BT-549; BT-549, read-out: pTGI): 16.6 µM; GI50 (HT-29; HT-29, read-out: pGI50 (converted)): 0.209 µM; CC50 (HT-29; HT-29, read-out: pLC50 (converted)): 70.8 µM; TGI (HT-29; HT-29, read-out: pTGI): 10.2 µM; GI50 (RXF 393; RXF 393, read-out: pGI50 (converted)): 1.62 µM; CC50 (RXF 393; RXF 393, read-out: pLC50 (converted)): 26.3 µM; TGI (RXF 393; RXF 393, read-out: pTGI): 4.9 µM; GI50 (HCC 2998; HCC 2998, read-out: pGI50 (converted)): 0.324 µM; CC50 (HCC 2998; HCC 2998, read-out: pLC50 (converted)): 5.25 µM; TGI (HCC 2998; HCC 2998, read-out: pTGI): 1.7 µM; GI50 (ACHN; read-out: pGI50 (converted)): 11.5 µM; CC50 (ACHN; read-out: pLC50 (converted)): > 100 µM; TGI (ACHN; read-out: pTGI): 64.6 µM; GI50 (HOP-92; HOP-92, read-out: pGI50 (converted)): 1.15 µM; CC50 (HOP-92; HOP-92, read-out: pLC50 (converted)): > 100 µM; TGI (HOP-92; HOP-92, read-out: pTGI): 6.92 µM; GI50 (LOX IMVI; read-out: pGI50 (converted)): 1.7 µM; CC50 (LOX IMVI; read-out: pLC50 (converted)): 49 µM; TGI (LOX IMVI; read-out: pTGI): 5.25 µM; GI50 (Malme-3M; read-out: pGI50 (converted)): 1.55 µM; CC50 (Malme-3M; read-out: pLC50 (converted)): 20 µM; TGI (Malme-3M; read-out: pTGI): 4.37 µM; GI50 (NCI-H226; NCI-H226, read-out: pGI50 (converted)): 0.537 µM; CC50 (NCI-H226; NCI-H226, read-out: pLC50 (converted)): 28.8 µM; TGI (NCI-H226; NCI-H226, read-out: pTGI): 3.24 µM; GI50 (SK-MEL-5; SK-MEL-5, read-out: pGI50 (converted)): 0.302 µM; CC50 (SK-MEL-5; SK-MEL-5, read-out: pLC50 (converted)): 4.68 µM; TGI (SK-MEL-5; SK-MEL-5, read-out: pTGI): 1.32 µM; GI50 (A549; A549, read-out: pGI50 (converted)): 0.0776 µM; CC50 (A549; A549, read-out: pLC50 (converted)): > 100 µM; TGI (A549; A549, read-out: pTGI): 13.8 µM; GI50 (TK-10; TK-10, read-out: pGI50 (converted)): 3.09 µM; CC50 (TK-10; TK-10, read-out: pLC50 (converted)): > 100 µM; TGI (TK-10; TK-10, read-out: pTGI): 14.5 µM; GI50 (COLO 205; COLO 205, read-out: pGI50 (converted)): 0.339 µM; CC50 (COLO 205; COLO 205, read-out: pLC50 (converted)): 14.5 µM; TGI (COLO 205; COLO 205, read-out: pTGI): 2.4 µM; GI50 (SK-OV-3; SK-OV-3, read-out: pGI50 (converted)): 0.447 µM; CC50 (SK-OV-3; SK-OV-3, read-out: pLC50 (converted)): 77.6 µM; TGI (SK-OV-3; SK-OV-3, read-out: pTGI): 3.89 µM; GI50 (SR; read-out: pGI50 (converted)): 1.7 µM; CC50 (SR; read-out: pLC50 (converted)): > 100 µM; TGI (SR; read-out: pTGI): > 100 µM; GI50 (IGROV-1; IGROV-1, read-out: pGI50 (converted)): 0.363 µM; CC50 (IGROV-1; IGROV-1, read-out: pLC50 (converted)): > 100 µM; TGI (IGROV-1; IGROV-1, read-out: pTGI): 5.01 µM; GI50 (T47D; read-out: pGI50 (converted)): 0.234 µM; CC50 (T47D; read-out: pLC50 (converted)): > 100 µM; TGI (T47D; read-out: pTGI): 2.34 µM; GI50 (UACC-62; UACC-62, read-out: pGI50 (converted)): 0.2 µM; CC50 (UACC-62; UACC-62, read-out: pLC50 (converted)): 3.63 µM; TGI (UACC-62; UACC-62, read-out: pTGI): 0.933 µM; GI50 (cells; RPMI8266, read-out: pGI50 (converted)): 0.661 µM; CC50 (cells; RPMI8266, read-out: pLC50 (converted)): > 100 µM; TGI (cells; RPMI8266, read-out: pTGI): 3.89 µM; MTD (in vivo): 25 mg/kg; GI50 (OVCAR-8; OVCAR-8, read-out: pGI50 (converted)): 1.74 µM; CC50 (OVCAR-8; OVCAR-8, read-out: pLC50 (converted)): 45.7 µM; TGI (OVCAR-8; OVCAR-8, read-out: pTGI): 12.3 µM; GI50 (SF-268; SF-268, read-out: pGI50 (converted)): 0.0457 µM; CC50 (SF-268; SF-268, read-out: pLC50 (converted)): 42.7 µM; TGI (SF-268; SF-268, read-out: pTGI): 1.38 µM; GI50 (MDA-MB-468; MDA-MB-468, read-out: pGI50 (converted)): 0.234 µM; CC50 (MDA-MB-468; MDA-MB-468, read-out: pLC50 (converted)): 6.92 µM; TGI (MDA-MB-468; MDA-MB-468, read-out: pTGI): 1.58 µM
